From patent US20050101595A1, “N-containing cycloalkyl-substituted amino-thiazole derivatives and pharmaceutical compositions for inhibiting cell proliferation and methods for their use” (PFIZER INC., priority 2003, published 2005)
Counter-ions that a name gives are not always drawn.

Key:
HCT-116 cell line = experiment: Inhibition of cell growth, tetrazolium salt (MTT) assay; format: cell-based; settings: MTT; for inhibition at 0.175 µM / IC50: Homo sapiens; for inhibition at 0.175 µM: HCT-116, HCT-116 cells; for IC50: HCT-116, 120 h, first HCT-116 column (c4), three to five days, read-out: HCT-116 IC50
Summary of the method: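 Cells in McCoy's 5A medium were left 4 h, then given graded compound concentrations in 0.5% (v/v) DMSO and incubated three to five days at 37° C (5% CO2). MTT was added to 0.2 mg/mL for 4 h more; DMSO-solubilized formazan was read at 540 nm against 0.5% DMSO-only controls.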

CDK2/Cyclin A = CDK2/Cyclin A (Homo sapiens, UniProt P24941); experiment: Inhibition of CDK2/Cyclin A Retinoblastoma Kinase Activity; format: biochemical; settings: for inhibition at 0.05 µM: read-out: % inhibition of CDK2 (@ 0.05 μM), compound at 0.05 μM; for Ki: apparent Ki, CDK2/proteolyzed cyclin A, Rb fragment substrate, 25 μM ATP
Experimental: Cyclin-dependent kinase activity was measured by quantifying the enzyme-catalyzed, time-dependent incorporation of radioactive phosphate from [^32P]ATP or [^33P]ATP into a protein substrate. Unless noted otherwise, assays were performed in 96-well plates in a total volume of 50 μL, in the presence of 10 mM HEPES (N-[2-hydroxyethyl]piperazine-N′-[2-ethanesulfonic acid]) (pH 7.4), 10 mM MgCl2, 25 μM adenosine triphosphate (ATP), 1 mg/mL ovalbumin, 5 μg/mL leupeptin, 1 mM dithiothreitol, 10 mM β-glycerophosphate, 0.1 mM sodium vanadate, 1 mM sodium fluoride, 2.5 mM ethylene glycol-bis(β-aminoethyl ether)-N,N,N′N′-tetraacetic acid (EGTA), 2% (v/v) dimethylsulfoxide, and 0.03-0.4 μCi [^32/33P]ATP per reaction. Reactions were initiated with enzyme, incubated at 30° C., and terminated after 20 minutes by the addition of ethylenediaminetetraacetic acid (EDTA) to 250 mM. The phosphorylated substrate was then captured on a nitrocellulose or phosphocellulose membrane using a 96-well filtration manifold, and unincorporated radioactivity was removed by repeated washing with 0.85% phosphoric acid. Radioactivity was quantified by exposing the dried membranes to a phosphorimager.
Inhibition was measured relative to control wells that contained all reaction components including 2% (v/v) DMSO but no compound, after subtraction of background radioactivity measured in the absence of enzyme. Apparent Ki values of discrete compounds were measured by assaying enzyme activity in the presence of different inhibitor compound concentrations and subtracting the background radioactivity measured in the absence of enzyme. The kinetic parameters (kcat, Km for ATP) were measured for each enzyme under the usual assay conditions by determining the dependence of initial rates on ATP concentration. Inhibition data were fit to an equation for competitive inhibition using Kaleidagraph (Synergy Software), or were fit to an equation for competitive tight-binding inhibition using the software KineTic (BioKin, Ltd.).
Inhibition of CDK2/Cyclin A Retinoblastoma Kinase Activity:
CDK2 was purified using published methodology (Rosenblatt et al., “Purification and Crystallization of Human Cyclin-dependent Kinase 2,” J. Mol. Biol., vol. 230, 1993, pp. 1317-1319) from insect cells that had been infected with a baculovirus expression vector. […] A complex of CDK2 and proteolyzed cyclin A was prepared and purified by gel filtration. The substrate for this assay was the same Rb substrate fragment used for the CDK4 assays, and the methodology of the CDK2/delta cyclin A and the CDK4/delta cyclin D3 assays was essentially the same, except that CDK2 was present at 10 nM or 19 nM. The duration of the assay was 60 or 75 minutes, during which the time-dependence of product formation was linear and initial rate conditions were met. And, the percent inhibitions of the compounds of Example O through Example R were calculated as described above and shown in Table 2.

SMILES | inhibition at 0.05 µM (CDK2/Cyclin A) [%] | inhibition at 0.175 µM (HCT-116 cell line; compound at 0.175 uM) [%] | also measured
Nc1nc(NC2CCN(S(=O)(=O)CCCN3CCOCC3)CC2)sc1C(=O)c1c(F)cccc1F [Example V88] | 77 | 17 | 
CN(C)CCCNCCCS(=O)(=O)N1CCC(Nc2nc(N)c(C(=O)c3c(F)cccc3F)s2)CC1 [Example V15] | 62 | 11 | 
Nc1nc(NC2CCN(S(=O)(=O)CCCN3CCCCCC3)CC2)sc1C(=O)c1c(F)cccc1F [Example V37] |  |  | % inhibition HCT-116 in MTT @ 0.175 uM (HCT-116 cell line; HCT-116 cells, compound at 0.175 uM, 0.175 µM): 65%; % inhibition of CDK2 (@ 0.05 μM) (CDK2/Cyclin A; compound at 0.05 μM, 0.05 µM): 85%
CC(C)[C@H](CO)NCCCS(=O)(=O)N1CCC(Nc2nc(N)c(C(=O)c3c(F)cccc3F)s2)CC1 [Example V70] | 89 | 2 | 
CC(NCCCS(=O)(=O)N1CCC(Nc2nc(N)c(C(=O)c3c(F)cccc3F)s2)CC1)c1ccccc1 (stereo not shown) [Example V53] | 91 | 75 | 
Nc1nc(NC2CCN(S(=O)(=O)CCCNCc3cccc(F)c3)CC2)sc1C(=O)c1c(F)cccc1F [Example V100] | 91 | 88 | 
Nc1nc(NC2CCN(S(=O)(=O)CCCN3CCSC3)CC2)sc1C(=O)c1c(F)cccc1F [Example V101] | 80 | 22 | 
CC1CCN(CCCS(=O)(=O)N2CCC(Nc3nc(N)c(C(=O)c4c(F)cccc4F)s3)CC2)CC1 [Example K58, {4-Amino-2-[(1-{[3-(4-methylpiperidin-1-yl)propyl]sulfonyl}piperidin-4-yl)amino]-1,3-thiazol-5-yl}(2,6-difluorophenyl)methanone] |  |  | IC50 (HCT-116 cell line): 150 nM; Ki (CDK2/Cyclin A): 11 nM
CN(C)C1CCN(CCCS(=O)(=O)N2CCC(Nc3nc(N)c(C(=O)c4c(F)cccc4F)s3)CC2)C1 (stereo not shown) [Example V99] | 69 | 0 | 
Nc1nc(NC2CCN(S(=O)(=O)CCCNCCCCO)CC2)sc1C(=O)c1c(F)cccc1F [Example V90] | 79 | 21 | 
Nc1nc(NC2CCN(S(=O)(=O)CCCNc3nnn[nH]3)CC2)sc1C(=O)c1c(F)cccc1F [Example V84] | 24 | 0 | 
Nc1nc(NC2CCN(S(=O)(=O)CCCNCc3ccccc3F)CC2)sc1C(=O)c1c(F)cccc1F [Example V183, (4-Amino-2-{[1-({3-[(2-fluorobenzyl)amino]propyl}sulfonyl)-4-piperidinyl]amino}-1,3-thiazol-5-yl)(2,6-difluorophenyl)methanone.] |  |  | IC50 (HCT-116 cell line): 90 nM; Ki (CDK2/Cyclin A): 4 nM
C=C(C)CN(C)CCCS(=O)(=O)N1CCC(Nc2nc(N)c(C(=O)c3c(F)cccc3F)s2)CC1 [Example V177, (4-Amino-2-{[1-({3-[methyl(2-methyl-2-propen-1-yl)amino]propyl}sulfonyl)-4-piperidinyl]amino}-1,3-thiazol-5-yl)(2,6-difluorophenyl)methanone.] |  |  | IC50 (HCT-116 cell line): 90 nM; Ki (CDK2/Cyclin A): 17 nM
C[C@@H](NCCC(=O)N1CCC(Nc2nc(N)c(C(=O)c3c(F)cccc3F)s2)CC1)c1ccccc1 [Example U1, Trifluoroacetic Acid Salt] |  |  | IC50 (HCT-116 cell line): 910 nM; Ki (CDK2/Cyclin A): 20.7 nM
CCN(CC)CCCNCCCS(=O)(=O)N1CCC(Nc2nc(N)c(C(=O)c3c(F)cccc3F)s2)CC1 [Example V14] | 75 | 18 | 
Nc1nc(NC2CCN(S(=O)(=O)CCCN3CCC(O)CC3)CC2)sc1C(=O)c1c(F)cccc1F [Example V25] | 73 | 16 | 
CSCCNCCCS(=O)(=O)N1CCC(Nc2nc(N)c(C(=O)c3c(F)cccc3F)s2)CC1 [Example V128] | 87 | 25 | 
CCCN(CCC#N)CCCS(=O)(=O)N1CCC(Nc2nc(N)c(C(=O)c3c(F)cccc3F)s2)CC1 [Example V105] | 84 | 0 | 
CCCCNCCCS(=O)(=O)N1CCC(Nc2nc(N)c(C(=O)c3c(F)cccc3F)s2)CC1 [Example V85] | 82 | 29 | 
Nc1nc(NC2CCN(S(=O)(=O)CCCNCc3cccc(F)c3)CC2)sc1C(=O)c1c(F)cccc1F [Example V178, (4-Amino-2-{[1-({3-[(3-fluorobenzyl)amino]propyl}sulfonyl)-4-piperidinyl]amino}-1,3-thiazol-5-yl)(2,6-difluorophenyl)methanone.] |  |  | IC50 (HCT-116 cell line): 80 nM; Ki (CDK2/Cyclin A): 4.6 nM
Nc1nc(NC2CCN(S(=O)(=O)CCCNCCCN3CCCC3)CC2)sc1C(=O)c1c(F)cccc1F [Example V73] | 82 | 0 | 
Nc1nc(NC2CCN(S(=O)(=O)CCCNCCc3cccs3)CC2)sc1C(=O)c1c(F)cccc1F [Example V76] | 89 | 44 | 
NC(=O)CNCCCS(=O)(=O)N1CCC(Nc2nc(N)c(C(=O)c3c(F)cccc3F)s2)CC1 [Example V17] | 78 | 0 | 
CN(CCCS(=O)(=O)N1CCC(Nc2nc(N)c(C(=O)c3c(F)cccc3F)s2)CC1)Cc1ccco1 [Example V179, (4-Amino-2-{[1-({3-[(2-furylmethyl)(methyl)amino]propyl}sulfonyl)-4-piperidinyl]amino}-1,3-thiazol-5-yl)(2,6-difluorophenyl)methanone.] |  |  | IC50 (HCT-116 cell line): 170 nM; Ki (CDK2/Cyclin A): 11 nM
Nc1nc(NC2CCN(S(=O)(=O)CCCN3CCCC(O)C3)CC2)sc1C(=O)c1c(F)cccc1F (stereo not shown) [Example V77] | 72 | 7 | 
CCC(O)CNCCCS(=O)(=O)N1CCC(Nc2nc(N)c(C(=O)c3c(F)cccc3F)s2)CC1 (stereo not shown) [Example V83] | 79 | 0 | 

Now from value to compound, other results behind:

inhibition at 0.05 µM (CDK2/Cyclin A) [%] | SMILES | inhibition at 0.175 µM (HCT-116 cell line; compound at 0.175 uM) [%] | also measured
87 | Nc1nc(NC2CCN(S(=O)(=O)CCCN3Cc4ccccc4C3)CC2)sc1C(=O)c1c(F)cccc1F [Example V155] | 11 | 
78 | CN(C)CCCS(=O)(=O)N1CCC(Nc2nc(N)c(C(=O)c3c(F)cccc3F)s2)CC1 [Example V147] | 23 | 
75 | CCN(CCCS(=O)(=O)N1CCC(Nc2nc(N)c(C(=O)c3c(F)cccc3F)s2)CC1)CCOC [Example V130] | 36 | 
76 | C=C(C)CN(C)CCCS(=O)(=O)N1CCC(Nc2nc(N)c(C(=O)c3c(F)cccc3F)s2)CC1 [Example V137] | 78 | 
72 | Nc1nc(NC2CCN(S(=O)(=O)CCCN3CCNC(=O)C3)CC2)sc1C(=O)c1c(F)cccc1F [Example V166] | 3 | 
83 | Nc1nc(NC2CCN(S(=O)(=O)CCCN3CCC(F)(F)CC3)CC2)sc1C(=O)c1c(F)cccc1F [Example V168] | 37 | 
73 | Cc1nnc(CN(C)CCCS(=O)(=O)N2CCC(Nc3nc(N)c(C(=O)c4c(F)cccc4F)s3)CC2)o1 [Example V176] | 0 | 
85 | Cc1c(CNCCCS(=O)(=O)N2CCC(Nc3nc(N)c(C(=O)c4c(F)cccc4F)s3)CC2)cnn1C [Example V173] | 0 | 
82 | COC(=O)CCCNCCCS(=O)(=O)N1CCC(Nc2nc(N)c(C(=O)c3c(F)cccc3F)s2)CC1 [Example V141] | 22 | 
78 | Cc1nnc(CCNCCCS(=O)(=O)N2CCC(Nc3nc(N)c(C(=O)c4c(F)cccc4F)s3)CC2)o1 [Example V175] | 5 | 
78 | Nc1nc(NC2CCN(S(=O)(=O)CCCN3CCN4CCCC4C3)CC2)sc1C(=O)c1c(F)cccc1F (stereo not shown) [Example V152] | 0 | 
82 | Nc1nc(NC2CCN(S(=O)(=O)CCCN3CCNC(=O)CC3)CC2)sc1C(=O)c1c(F)cccc1F [Example V156] | 0 | 
